Reference: ChEMBL document CHEMBL3132858, “6-Alkyl-, 6-aryl- or 6-hetaryl-7-deazapurine ribonucleosides as inhibitors of human or MTB adenosine kinase and potential antimycobacterial agents” (Medchemcomm, 2013)
Active and inactive are the calls of the source. The calls are words filed in the database; no cut-off is given here.

Key:
[1] = Cytotoxicity against human MRC5 cells after 72 hrs by MTT assay; type: cell-based
Adenosine kinase [2] = target: Adenosine kinase (Homo sapiens, UniProt P55263); experiment: Inhibition of human ADK using [3H]-adenosine by scintillation counting method
Sequence of Adenosine kinase (Homo sapiens, UniProt P55263) (P55263 whole entry): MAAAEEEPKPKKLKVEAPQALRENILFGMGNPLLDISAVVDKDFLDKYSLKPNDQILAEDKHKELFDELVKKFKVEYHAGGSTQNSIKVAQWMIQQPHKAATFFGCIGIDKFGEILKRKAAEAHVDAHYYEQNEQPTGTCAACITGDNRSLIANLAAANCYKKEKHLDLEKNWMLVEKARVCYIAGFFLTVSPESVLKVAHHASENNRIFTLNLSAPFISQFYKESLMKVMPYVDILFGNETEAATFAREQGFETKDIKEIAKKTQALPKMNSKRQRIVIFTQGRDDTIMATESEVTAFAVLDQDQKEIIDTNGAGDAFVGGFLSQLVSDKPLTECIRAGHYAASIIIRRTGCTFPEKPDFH

[3] = target: Adenosine kinase (Mycobacterium tuberculosis (strain CDC 1551 / Oshkosh)) (UniProt P9WID4); experiment: Activity of Mycobacterium tuberculosis ADK assessed as compound conversion to 5'-phosphate form incubated at 37 degC for 20 mins by HPLC method
Sequence of Adenosine kinase (Mycobacterium tuberculosis (strain CDC 1551 / Oshkosh)) (P9WID4 2-324 limits assumed): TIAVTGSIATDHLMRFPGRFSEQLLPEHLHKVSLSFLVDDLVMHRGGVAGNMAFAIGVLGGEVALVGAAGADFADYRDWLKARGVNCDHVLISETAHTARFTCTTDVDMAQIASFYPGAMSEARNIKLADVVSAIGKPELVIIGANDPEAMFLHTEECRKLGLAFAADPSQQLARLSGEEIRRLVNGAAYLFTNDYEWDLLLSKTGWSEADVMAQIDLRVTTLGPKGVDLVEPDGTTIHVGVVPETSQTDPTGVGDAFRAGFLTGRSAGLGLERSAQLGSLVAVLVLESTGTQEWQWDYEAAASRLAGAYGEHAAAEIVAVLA

[4] = Cytotoxicity against human BJ cells after 72 hrs by MTT assay; type: cell-based
Adenosine kinase [5] = target: Adenosine kinase (Mycobacterium tuberculosis (strain CDC 1551 / Oshkosh), UniProt P9WID4); experiment: Inhibition of Mycobacterium tuberculosis ADK using [3H]-adenosine by scintillation counting method
Sequence of Adenosine kinase (Mycobacterium tuberculosis (strain CDC 1551 / Oshkosh), UniProt P9WID4) (P9WID4 whole entry): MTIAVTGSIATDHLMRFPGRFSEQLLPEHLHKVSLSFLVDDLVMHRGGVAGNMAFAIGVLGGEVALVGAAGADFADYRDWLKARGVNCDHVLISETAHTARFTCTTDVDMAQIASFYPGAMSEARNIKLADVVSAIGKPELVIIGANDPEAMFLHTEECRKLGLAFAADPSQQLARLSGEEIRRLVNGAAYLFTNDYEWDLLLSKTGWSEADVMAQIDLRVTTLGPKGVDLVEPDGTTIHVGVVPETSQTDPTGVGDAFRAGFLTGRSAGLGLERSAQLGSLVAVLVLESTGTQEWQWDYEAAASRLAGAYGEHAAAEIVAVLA

Row | Structure (SMILES) | CC50 at 72 h [1] | IC50 (Adenosine kinase [2]) | Activity [3] | CC50 at 72 h [4] | IC50 (Adenosine kinase [5])
1 | CCCCCCCCCCCCCCCCCCOP(=O)(O)OC[C@H]1O[C@@H](n2ccc3c(-c4ccoc4)ncnc32)[C@H](O)[C@@H]1O | > 50 µM | 5.15 µM | inactive | 44.2 µM | > 20 µM
2 | OC[C@H]1O[C@@H](n2ccc3c(Cc4ccccc4)ncnc32)[C@H](O)[C@@H]1O | > 50 µM | > 20 µM | inactive | 36.9 µM | > 20 µM
3 | COc1ccc(-c2ncnc3c2ccn3[C@@H]2O[C@H](CO)[C@@H](O)[C@H]2O)cc1 | > 50 µM | > 10 µM | inactive | > 50 µM | 0.058 µM
4 | OC[C@H]1O[C@@H](n2cc(F)c3c(-c4ccoc4)ncnc32)[C@H](O)[C@@H]1O | 15.4 µM | > 10 µM | inactive | 0.35 µM | 0.15 µM
5 | OC[C@H]1O[C@@H](n2ccc3c(-c4cc5ccccc5o4)ncnc32)[C@H](O)[C@@H]1O | > 50 µM | 2.1 µM | inactive | > 50 µM | 0.0145 µM
6 | OC[C@H]1O[C@@H](n2ccc3c(-c4cc5ccccc5s4)ncnc32)[C@H](O)[C@@H]1O | > 50 µM | 0.3 µM | inactive | > 50 µM | 0.0075 µM
7 | CCCCCCCCCCCCCCCCCCOP(=O)(O)OC[C@H]1O[C@@H](n2ccc3c(-c4ccsc4)ncnc32)[C@H](O)[C@@H]1O | > 50 µM | 6.35 µM | inactive | > 50 µM | > 20 µM
8 | CCCCCCCCCCCCCCCCCCOP(=O)(O)OC[C@H]1O[C@@H](n2ccc3c(-c4ccccc4)ncnc32)[C@H](O)[C@@H]1O | > 50 µM | 4.4 µM | inactive | > 50 µM | > 20 µM
9 | OC[C@H]1O[C@@H](n2ccc3c(-c4cc5ccccc5[nH]4)ncnc32)[C@H](O)[C@@H]1O | > 50 µM | 8.35 µM | inactive | > 50 µM | 0.04 µM
10 | CCCCCCCCCCCCCCCCCCOP(=O)(O)OC[C@H]1O[C@@H](n2ccc3c(-c4ccco4)ncnc32)[C@H](O)[C@@H]1O | 45.3 µM | 2.4 µM | inactive | > 50 µM | > 20 µM
11 | OC[C@H]1O[C@@H](n2ccc3c(-c4cccc5c4Oc4ccccc4S5)ncnc32)[C@H](O)[C@@H]1O | > 50 µM | 3.07 µM | inactive | > 50 µM | 1.46 µM
12 | CCc1ncnc2c1ccn2[C@@H]1O[C@H](CO)[C@@H](O)[C@H]1O | 50 µM | > 20 µM | inactive | 2.7 µM | 8.1 µM
13 | OC[C@H]1O[C@@H](n2ccc3c(-c4ccccc4)ncnc32)[C@H](O)[C@@H]1O | > 50 µM | > 10 µM | inactive | 44.1 µM | 0.12 µM
14 | OC[C@H]1O[C@@H](n2ccc3c(-c4cccc5c4sc4ccccc45)ncnc32)[C@H](O)[C@@H]1O | 43.8 µM | 15.4 µM | inactive | > 50 µM | 0.15 µM
15 | OC[C@H]1O[C@@H](n2ccc3c(-c4cccs4)ncnc32)[C@H](O)[C@@H]1O | > 50 µM | > 5 µM | inactive | 0.31 µM | 0.046 µM
16 | OC[C@H]1O[C@@H](n2ccc3c(-c4cccnc4)ncnc32)[C@H](O)[C@@H]1O | > 50 µM | > 10 µM | inactive | 50 µM | 1 µM
17 | CCCCCCCCCCCCCCCCCCOP(=O)(O)OC[C@H]1O[C@@H](n2ccc3c(-c4cccs4)ncnc32)[C@H](O)[C@@H]1O | – | 1.97 µM | inactive | – | > 20 µM
